Results taken from patent US12390435B2, “Electrophiles and electrophile pro-drugs as RAD51 inhibitors” (University of Pittsburgh—Of the Commonwealth System of …, priority 2018, dated 2025).
Read-outs that look alike come from different tables or passages of the source.

How the values were obtained:
MDA-MB-231 cells [1] = assay: Cell growth assay (FluoReporter dsDNA); assay type: cell-based; conditions: Homo sapiens, MDA-MB-231; 48 hr, 0-15 μM
Experimental: (§1) Cells were plated at a cell density of 5000 cells per well in 96-well plates. […] Cells were counted using the FluoReporter dsDNA quantitation kit (Molecular Probes) according to the manufacturer's instructions. Fluorescence was measured using a SpectraMax M2 plate reader (Molecular Devices). […] Three individual experiments were done (n=5/each), and statistical comparison between two cell lines across doses was determined by two-way analysis of variance followed by Tukey post-test.

MDA-MB-468 cells = assay: Cell growth assay (FluoReporter dsDNA); assay type: cell-based; conditions: Homo sapiens, 48 hr, 0-15 μM
Experimental: as §1

MCF7 cells = assay: Cell growth assay (FluoReporter dsDNA); assay type: cell-based; conditions: Homo sapiens, 48 hr, 0-15 μM
Experimental: as §1

MCF-10A cells = assay: Cell growth assay (FluoReporter dsDNA); assay type: cell-based; conditions: for IC50: Homo sapiens, MCF-10A
Experimental: as §1

RAD51 = target: T1, RAD51 (Homo sapiens, UniProt Q06609); assay: RAD51 ssDNA binding, fluorescence polarization; assay type: biochemical; conditions: 5 or 10 μM, ATP and Alexa Fluor 488 DNA
T1 construct: purchased Abcam
T1 sequence (Q06609 whole entry): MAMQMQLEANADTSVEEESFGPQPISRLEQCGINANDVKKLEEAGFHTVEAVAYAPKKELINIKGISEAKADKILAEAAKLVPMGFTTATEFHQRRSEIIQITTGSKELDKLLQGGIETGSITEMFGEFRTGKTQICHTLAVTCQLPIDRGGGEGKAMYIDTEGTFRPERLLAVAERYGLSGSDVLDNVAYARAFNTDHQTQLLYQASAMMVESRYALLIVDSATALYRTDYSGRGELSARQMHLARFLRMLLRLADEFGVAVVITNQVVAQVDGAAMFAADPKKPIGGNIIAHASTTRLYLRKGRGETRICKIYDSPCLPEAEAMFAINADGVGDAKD
Experimental: Reactions were performed in black 96-well plates (Greiner) in 50 μL reaction volumes in 20 mM HEPES pH 7.5, 10 mM MgCl2, 0.25 μM BSA, 2% glycerol, 30 mM NaCl and 4% DMSO. […] 2 mM ATP and 100 nM 5′-Alexa Fluor 488 ssDNA poly-dT (Integrated DNA technologies) were added to the reaction and incubated for 90 min at 37° C. DNA binding was measured using fluorescence polarization (FP) on a Tecan Spark 20M (ex/em 480 nm/535 nm). Compound fluorescence quenching was detected as above in the absence of RAD51 protein.

MDA-MB-231 cells [2] = assay: CellTiter-Glo relative growth (luminescent ATP); assay type: cell-based
Experimental: (§2) HEK 293T, MDA-MB-231, MDA-MB-468, Hs578T and BT-549 cells (American Type Culture Collection) were cultured at 37° C. with 5% CO2 in Dulbecco's modified Eagle's medium containing (DMEM) (Gibco) supplemented with 5% FBS (HyClone), 100 units/ml penicillin, […] streptomycin (Gibco), non-essential amino acids (Gibco) and 2 mM 1-glutamine (Gibco). Doxorubicin (Selleckchem), cisplatin (Sigma) or olaparib (Selleckchem) were dissolved in DMSO or DMF (cisplatin). […] Pure NO2-OA was diluted in DMSO and added to cells after solvation in assay media. Relative cell numbers were compared by measuring the luminescent signal generated by ATP using the CellTiter-Glo (Promega) assay. Cells were plated in a 96-well plate at 5,000 (MDA-MB-231) or 6,600 (BT549 or Hs578T) cells per well.
(§3) Data represent the mean±SEM from 3 independent experiments unless otherwise noted. A p value<0.05 was considered statistically significant. Non-linear curves were generated in GraphPad Prism 7.0 (GraphPad Software, La Jolla, CA, USA) for statistical analysis. EC50 values and standard error were calculated from three independent experiments utilizing a non-linear dose response variable slope model. Significance was tested by one-way ANOVA for multiple groups with Tukey posttest or by t-test when groups were less than three. RAD51 foci number was analyzed with ImageJ. Nuclear boundaries were individually identified in more than 50 cells per treatment group in three independent experiments.
(§4) The growth of BT-549 cells was not affected. […] MDA-MB-231 cells were plated in a 96 well plate and treated with talazoparib (0.01-75 μM) plus OA-NO2 or NDA-NO2 (0.2-12 μM) daily for 3 days. Growth inhibition (relative cell numbers) of MDA-MB-231 cells was determined by luminescent detection of ATP (CellTiter-Glo) (FIG. 1K).

Hs578T cells = assay: CellTiter-Glo relative growth (luminescent ATP); assay type: cell-based
Experimental: as §2, §3, §4

[3] = cisplatin 72 h plus daily 2 μM NO2-OA
[4] = doxorubicin 72 h plus daily 2 μM NO2-OA
[5] = olaparib 72 h plus daily 2 μM NO2-OA

## CCCCCCCCC(=CCCCCCCCC(=O)O)[N+](=O)[O-] [NO2-OA, 10-nitro-octadec-9-enoic acid]
MDA-MB-231 cells [1]
  IC50: 2.7 ± 0.11 µM
MDA-MB-468 cells
  IC50: 1.6 ± 0.11 µM
MCF7 cells
  IC50: 11.6 ± 3.59 µM
MCF-10A cells; read-out: IC50 cell growth, only NO2-OA treatment, probenecid study, no probenecid, 0-25 μM 48 hr
  IC50: 14.2 ± 1.05 µM
MCF-10A cells; 48 hr, 0-15 μM, read-out: IC50 cell growth
  IC50: 7.7 ± 1.93 µM
MCF-10A cells; probenecid pretreated versus only NO2-OA
  decrease of IC50 by probenecid: 2 fold
RAD51
  relative fluorescence polarization of RAD51 with ssDNA: decreased the relative polarization of RAD51
MDA-MB-231 cells [2]; 12 or 6.0 μM plus 0.01-75 μM talazoparib, daily for 3 days
  Growth inhibition: ~100%
MDA-MB-231 cells [2]; ATP Celltiter Glo proliferation assay, n=3
  EC50 for growth inhibition, compared between compounds: higher EC50
MDA-MB-231 cells [2]; Homo sapiens, MDA-MB-231, 72 h, read-out: EC50 for growth inhibition
  EC50: 3.66 ± 0.14 µM
MDA-MB-231 cells [2]; [3]
  increased growth inhibition of cisplatin: 6 fold
MDA-MB-231 cells [2]; [4]
  enhanced growth inhibition of doxorubicin: 7 fold
MDA-MB-231 cells [2]; [5]
  enhanced growth inhibition of olaparib: 5 fold
MDA-MB-231 cells [2]; with talazoparib (0.01-75 μM), 0.2-12 μM, daily 3 days, CI<1 is synergistic
  Combination index (CI), Chou-Talalay: < 1
Hs578T cells; Homo sapiens, Hs-578T, 72 h, read-out: EC50 for growth inhibition
  EC50: 1.98 ± 0.52 µM
Hs578T cells; [3]
  increased growth inhibition of cisplatin: 3 fold
Hs578T cells; [4]
  enhanced growth inhibition of doxorubicin: 5 fold
Hs578T cells; [5]
  enhanced growth inhibition of olaparib: 17 fold
